Consider seven compounds from patent US9120749B2, “Quinoline derivatives and MELK inhibitors containing the same” (ONCOTHERAPY SCIENCE, INC., priority 2010, dated 2015).

One assay relates to DU4475 cells. In words: Cell-based assay: anti-proliferative activity, Cell Counting Kit-8, 72 hours (DU4475). The settings on record: Homo sapiens, DU-4475.
The next assay concerns A549 cells. The assay can be described thus: Cell-based assay: anti-proliferative activity, Cell Counting Kit-8, 72 hours (A549). To be noted: Homo sapiens, A549, 72 h, 72 hours. The method, boiled down:
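A549 cells were seeded in 96-well plates and exposed to candidate inhibitors for 72 hours. Cell growth was then measured with Cell Counting Kit-8, and IC50 values were calculated from the resulting growth data.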
In general terms: Formazan colour is commonly taken as a measure of viable cells.

In another assay the test system is 22Rv1 cells. The assay can be described thus: Cell-based assay: anti-proliferative activity, Cell Counting Kit-8, 72 hours (22Rv1). The settings on record: Homo sapiens.
The next assay concerns HT-1197 cells. The assay can be described thus: Cell-based assay: anti-proliferative activity, Cell Counting Kit-8, 72 hours (HT-1197, negative control without MELK expression). To be noted: Homo sapiens, HT1197, 72 h, HT1197 cells (negative control), 72 hours. The method in brief:
(§1)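 Cellular growth is read by CCK-8 colorimetric kit 72 h after inhibitor addition to seeded cells, and IC50 values are derived from the resulting data; MELK protein levels in these lines are checked beforehand by immunoblotting whole crude lysate.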

A further assay has as its system T47D cells. In words: Cell-based assay: anti-proliferative activity, Cell Counting Kit-8, 72 hours (T47D). To be noted: Homo sapiens, T47D, 72 h. The method in brief:
as §1

Structures can show the parent of a compound that is named as a salt.

What is called IC50 is the point on the concentration scale where inhibition reaches its midpoint. `CCN(CC)CCO[C@H]1CC[C@H](Nc2c(C(C)=O)cnc3ccc(-c4cc(Cl)c(O)c(Cl)c4)cc23)CC1` [Example 868, 1-(6-(3,5-dichloro-4-hydroxyphenyl)-4-((1R,4R)-4-(2-(diethylamino)ethoxy)cyclohexyl)amino)quinolin-3-yl)ethanone hydrochloride]: the IC50 came to 0.29 µM in the assay with DU4475 cells; 0.28 µM with A549 cells; 0.3 µM in the assay on 22Rv1 cells; 2.8 µM with HT-1197 cells; 0.14 µM with T47D cells.

On to `CS(=O)(=O)c1cnc2ccc(-c3cc(Cl)c(O)c(Cl)c3)cc2c1N[C@H]1CC[C@H](CN2CCCC2)CC1` [Example 890, 2,6-dichloro-4-(3-(methylsulfonyl)-4-((1R,4R)-4-(pyrrolidin-1-ylmethyl)cyclohexyl)amino)quinolin-6-yl) phenol hydrochloride], for which the concentration for half-maximal inhibition (IC50) came to 0.35 µM with DU4475 cells; 1.1 µM in the assay with A549 cells; 0.94 µM in the assay with 22Rv1 cells; 3 µM with HT-1197 cells; 1.3 µM in the assay with T47D cells.

On to `CS(=O)(=O)c1cnc2ccc(-c3cc(Cl)c(O)c(Cl)c3)cc2c1Nc1cccc(CCN2CCCC2)c1` [Example 883, 2,6-dichloro-4-(3-(methylsulfonyl)-4-((3-(2-(pyrrolidin-1-yl)ethyl)phenyl)amino)quinolin-6-yl)phenol hydrochloride], for which the IC50 in the assay with DU4475 cells is 0.53 µM; in the assay with A549 cells it was 1.9 µM; in the assay with 22Rv1 cells, 1.5 µM; in the assay with HT-1197 cells it was 100 µM; in the assay on T47D cells it was 1.4 µM.

Regarding `CC(=O)c1cnc2cc(C)c(-c3cc(Cl)c(O)c(Cl)c3)cc2c1N[C@H]1CC[C@H](CN2CCC(N)C2)CC1` (stereo partly drawn) [Example 872, 1-(4-((1R,4R)-4-((3-aminopyrrolidin-1-yl)methyl)cyclohexyl)amino)-6-(3,5-dichloro-4-hydroxyphenyl)-7-methylquinolin-3-yl)ethanone hydrochloride], the half-inhibitory concentration (IC50) stood at 0.26 µM in the assay with DU4475 cells; 100 µM with A549 cells; 14 µM in the assay on 22Rv1 cells; 100 µM in the assay on HT-1197 cells; 17 µM in the assay on T47D cells.

Regarding `CN(C)C[C@H]1CC[C@H](Nc2c(C(=O)C3CCCC3)cnc3ccc(-c4cc(Cl)c(O)c(Cl)c4)cc23)CC1` [Example 917, cyclopentyl(6-(3,5-dichloro-4-hydroxy-phenyl)-4-((1R,4R)-4-((dimethyl-amino)methyl)cyclohexyl)amino) quinolin-3-yl)methanone hydrochloride], the concentration for half-maximal inhibition (IC50) with DU4475 cells turned out to be 0.19 µM; in the assay on A549 cells, 0.68 µM; in the assay on 22Rv1 cells it was 0.91 µM; in the assay with HT-1197 cells, 3.3 µM; in the assay with T47D cells, 0.7 µM.

As to `O=C(c1cnc2ccc(-c3cc(Cl)c(O)c(Cl)c3)cc2c1Nc1cccc(CCN2CCCC2)c1)C1CCCC1` [Example 927, cyclopentyl(6-(3,5-dichloro-4-hydroxy-phenyl)-4-((3-(2-(pyrrolidin-1-yl)ethyl)phenyl)amino)quinolin-3-yl) methanone hydrochloride], the IC50 in the assay with DU4475 cells turned out to be 0.48 µM; with A549 cells it was 0.71 µM; in the assay with 22Rv1 cells it was 0.78 µM; in the assay on HT-1197 cells, 12 µM; in the assay on T47D cells, 1.3 µM.

As to `CC(N)C(=O)N[C@H]1CC[C@H](Nc2c(C(=O)C(C)(C)C)cnc3ccc(-c4cc(Cl)c(O)c(Cl)c4)cc23)CC1` (stereo partly drawn) [Example 928, 2-amino-N-((1R,4R)-4-((6-(3,5-dichloro-4-hydroxyphenyl)-3-pivaloyl-quinolin-4-yl)amino)cyclohexyl) propanamide hydrochloride], the half-maximal inhibitory concentration (IC50) in the assay with DU4475 cells stood at 1.1 µM; with A549 cells, 4.1 µM; with 22Rv1 cells it was 2 µM; in the assay on HT-1197 cells, 8.1 µM; in the assay on T47D cells it was 1.4 µM.
